# Results taken from PubChem BioAssay AID330 (DTP/NCI, 2004).
# Where “and” joins values, the source holds several entries; their conditions need not be identical. Equal entries are not always repeated. Toxic doses and inconclusive results are not listed.
# System: P388 leukemia ip, CD2F1 mice, survival T/C
# Assay: NCI In Vivo Anticancer Drug Screen. Data for tumor model P388 Leukemia (intraperitoneal) in CD2F1 (CDF1) mice
# Conditions: endpoint: median survival time, higher = longer survival
# Method in brief: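 Mice carrying the transplanted tumor received test compound or vehicle. Survival was recorded in each group, and the value is the treated-group measurement divided by that of the vehicle-treated control group.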
# [1] = dose: 6.25 mg/kg/injection, schedule: Q01DX005 (ip), vehicle: saline
# [2] = dose: 12.5 mg/kg/injection, schedule: Q01DX005 (ip), vehicle: saline
# [3] = dose: 50.0 mg/kg/injection, schedule: Q01DX005 (ip), vehicle: saline with Tween-80
# [4] = dose: 100.0 mg/kg/injection, schedule: Q01DX005 (ip), vehicle: saline with Tween-80
# [5] = dose: 200.0 mg/kg/injection, schedule: Q01DX005 (ip), vehicle: saline with Tween-80
# [6] = dose: 25.0 mg/kg/injection, schedule: Q01DX009 (ip), vehicle: saline with Tween-80
# [7] = dose: 50.0 mg/kg/injection, schedule: Q01DX009 (ip), vehicle: saline with Tween-80
# [8] = dose: 100.0 mg/kg/injection, schedule: Q01DX009 (ip), vehicle: saline with Tween-80
# [9] = dose: 50.0 mg/kg/injection, schedule: Q01DX009 (ip), vehicle: Klucel (hydroxypropylcellulose) (HPC)
# [10] = dose: 100.0 mg/kg/injection, schedule: Q01DX009 (ip), vehicle: Klucel (hydroxypropylcellulose) (HPC)
# [11] = dose: 200.0 mg/kg/injection, schedule: Q01DX009 (ip), vehicle: Klucel (hydroxypropylcellulose) (HPC)
# [12] = dose: 25.0 mg/kg/injection, schedule: Q01DX009 (ip), vehicle: saline
# [13] = dose: 60.0 mg/kg/injection, schedule: Q01DX005 (ip), vehicle: saline with Tween-80
# [14] = dose: 120.0 mg/kg/injection, schedule: Q01DX005 (ip), vehicle: saline with Tween-80
# [15] = dose: 240.0 mg/kg/injection, schedule: Q01DX005 (ip), vehicle: saline with Tween-80
# [16] = dose: 200.0 mg/kg/injection, schedule: Q01DX009 (ip), vehicle: saline with Tween-80
structure (smiles),measurement,setting,value
C[n+]1cc(-c2ccccc2)cc(-c2ccccc2)c1,T/C,"dose: 3.12 mg/kg/injection, schedule: Q01DX005 (ip), vehicle: Klucel (hydroxypropylcellulose) (HPC)",104 % of control
same,T/C,"dose: 3.12 mg/kg/injection, schedule: Q01DX005 (ip), vehicle: saline",103 % of control
same,T/C,"dose: 6.25 mg/kg/injection, schedule: Q01DX005 (ip), vehicle: Klucel (hydroxypropylcellulose) (HPC)",109 % of control
same,T/C,"dose: 6.25 mg/kg/injection, schedule: Q01DX005 (ip), vehicle: saline with Tween-80",105 % of control
same,T/C,[1],97 % of control
same,T/C,"dose: 12.5 mg/kg/injection, schedule: Q01DX005 (ip), vehicle: Klucel (hydroxypropylcellulose) (HPC)",104 % of control
same,T/C,"dose: 12.5 mg/kg/injection, schedule: Q01DX005 (ip), vehicle: saline with Tween-80",100 % of control
same,T/C,[2],96 % of control
same,T/C,"dose: 25.0 mg/kg/injection, schedule: Q01DX005 (ip), vehicle: saline with Tween-80",96 % of control
CN1CCCc2c1n(-c1ccccc1)c(=O)n(-c1ccccc1)c2=O,T/C,"dose: 50.0 mg/kg/injection, schedule: Q01DX005 (ip), vehicle: Klucel (hydroxypropylcellulose) (HPC)",100 % of control
same,T/C,"dose: 100.0 mg/kg/injection, schedule: Q01DX005 (ip), vehicle: Klucel (hydroxypropylcellulose) (HPC)",101 % of control
same,T/C,"dose: 200.0 mg/kg/injection, schedule: Q01DX005 (ip), vehicle: Klucel (hydroxypropylcellulose) (HPC)",99 % of control
CCOC(=O)C1C(COCc2ccccc2)C2CCC1(OC)C=C2C (centres undefined),T/C,[3],99 % of control
same,T/C,[4],97 % of control
same,T/C,[5],104 % of control
Cc1ccc(C(=O)C2C(=O)C(=O)OC2C2OC(=O)C(=O)C2C(=O)c2ccc(C)cc2)cc1 (centres undefined),T/C,"dose: 60.0 mg/kg/injection, schedule: Q01DX005 (ip), vehicle: saline + Tween-80 + alcohol",101 % of control
same,T/C,"dose: 120.0 mg/kg/injection, schedule: Q01DX005 (ip), vehicle: saline + Tween-80 + alcohol",104 % of control
same,T/C,"dose: 240.0 mg/kg/injection, schedule: Q01DX005 (ip), vehicle: saline + Tween-80 + alcohol",102 % of control
CSc1nc(SC)c2cnn(Cc3ccccc3)c2n1,T/C,[3],96 % of control
same,T/C,[4],95 % of control
same,T/C,[5],93 % of control
[Mn+2].[O-]c1cc(Br)ccc1/C=N/Nc1ccccn1.[O-]c1cc(Br)ccc1/C=N/Nc1ccccn1,T/C,[4],87 % of control
same,T/C,[5],91 % of control
same,T/C,"dose: 400.0 mg/kg/injection, schedule: Q01DX005 (ip), vehicle: saline with Tween-80",100 % of control
CC(=O)N(C)N=NCCCl,T/C,"dose: 13.12 mg/kg/injection, schedule: Q01DX005 (ip), vehicle: saline with Tween-80",157 % of control
same,T/C,"dose: 26.15 mg/kg/injection, schedule: Q01DX005 (ip), vehicle: saline with Tween-80",217 % of control
same,T/C,"dose: 52.5 mg/kg/injection, schedule: Q01DX005 (ip), vehicle: saline with Tween-80",257 % of control
same,T/C,"dose: 105.0 mg/kg/injection, schedule: Q01DX005 (ip), vehicle: saline with Tween-80",171 % of control
CC(C)n1cnc2c(Cl)ncnc21,T/C,[6],100 % of control
same,T/C,[7],104 % of control
same,T/C,[8],95 % of control
CN(C)c1nc(N)nc(N)n1,T/C,"dose: 6.25 mg/kg/injection, schedule: Q01DX009 (ip), vehicle: Klucel (hydroxypropylcellulose) (HPC)",100 % of control
same,T/C,"dose: 12.5 mg/kg/injection, schedule: Q01DX009 (ip), vehicle: Klucel (hydroxypropylcellulose) (HPC)",101 % of control and 115 % of control
same,T/C,"dose: 25.0 mg/kg/injection, schedule: Q01DX009 (ip), vehicle: Klucel (hydroxypropylcellulose) (HPC)",99 % of control and 106 % of control
same,T/C,[9],100 % of control and 107 % of control
same,T/C,[10],100 % of control
same,T/C,[11],105 % of control
NCCSCC(N)C(=O)O (centres undefined),T/C,[12],102 % of control
same,T/C,"dose: 50.0 mg/kg/injection, schedule: Q01DX009 (ip), vehicle: saline",103 % of control
same,T/C,"dose: 100.0 mg/kg/injection, schedule: Q01DX009 (ip), vehicle: saline",99 % of control
same,T/C,"dose: 200.0 mg/kg/injection, schedule: Q01DX009 (ip), vehicle: saline",109 % of control
Cc1cccc(Cl)c1NC(=O)NCCCN1CCOCC1,T/C,[13],102 % of control
same,T/C,[14],100 % of control
same,T/C,[15],112 % of control
CN=C(N)c1ccc(N=C(N)c2ccc(C(N)=Nc3ccc(C(N)=NC)cc3)cc2)cc1,T/C,"dose: 1.3 mg/kg/injection, schedule: Q01DX005 (iv), vehicle: saline",100 % of control
same,T/C,"dose: 5.0 mg/kg/injection, schedule: Q04DX003 (ip), vehicle: saline",100 % of control
same,T/C,"dose: 6.48 mg/kg/injection, schedule: Q04DX002 (ip), vehicle: saline",92 % of control
same,T/C,"dose: 10.0 mg/kg/injection, schedule: Q04DX003 (ip), vehicle: saline",100 % of control
same,T/C,"dose: 10.8 mg/kg/injection, schedule: Q01DX005 (ip), vehicle: water",120 % of control
same,T/C,"dose: 20.0 mg/kg/injection, schedule: Q01DX009 (ip), vehicle: saline",172 % of control
same,T/C,"dose: 30.0 mg/kg/injection, schedule: Q01DX005 (ip), vehicle: saline",163 % of control
O=P(C(=S)Nc1ccccc1Cl)(c1ccccc1)c1ccccc1,T/C,[9],100 % of control
same,T/C,[10],91 % of control
same,T/C,[11],90 % of control
CCOC(=S)NC(=O)c1ccccc1,T/C,[7],99 % of control
same,T/C,[8],108 % of control
same,T/C,[16],100 % of control
CCN(CC)CCCC(C)Nc1ccc2cc(OC)ccc2n1 (centres undefined),T/C,[1],103 % of control
same,T/C,[2],103 % of control
COC(=O)c1cc(C)n(Cc2ccccc2)c1,T/C,"dose: 100.0 mg/kg/injection, schedule: Q01DX001 (ip), vehicle: saline with Tween-80",97 % of control
same,T/C,"dose: 200.0 mg/kg/injection, schedule: Q01DX001 (ip), vehicle: saline with Tween-80",99 % of control
same,T/C,"dose: 400.0 mg/kg/injection, schedule: Q01DX001 (ip), vehicle: saline with Tween-80",97 % of control
CCn1c2ccccc2n2c(=O)cc(-c3ccccc3)c(C#N)c12,T/C,[13],98 % of control
same,T/C,[14],106 % of control
same,T/C,[15],97 % of control
COc1ccc(CCNC(=O)c2ccc(OC)c(OCc3ccccc3)c2)cc1OC,T/C,"dose: 25.0 mg/kg/injection, schedule: Q01DX009 (ip), vehicle: other",97 % of control
same,T/C,"dose: 50.0 mg/kg/injection, schedule: Q01DX009 (ip), vehicle: other",95 % of control
same,T/C,"dose: 100.0 mg/kg/injection, schedule: Q01DX009 (ip), vehicle: other",89 % of control
same,T/C,"dose: 200.0 mg/kg/injection, schedule: Q01DX009 (ip), vehicle: other",89 % of control
same,T/C,"dose: 400.0 mg/kg/injection, schedule: Q01DX009 (ip), vehicle: other",90 % of control
CCC(C)Sc1nc(N)nc2c1ncn2C1OC(CO)C(O)C1O (centres undefined),T/C,"dose: 44.0 mg/kg/injection, schedule: Q01DX009 (ip), vehicle: saline with Tween-80",100 % of control
same,T/C,"dose: 66.0 mg/kg/injection, schedule: Q01DX009 (ip), vehicle: saline with Tween-80",100 % of control
same,T/C,[8],95 % of control
same,T/C,"dose: 150.0 mg/kg/injection, schedule: Q01DX009 (ip), vehicle: saline with Tween-80",104 % of control
same,T/C,"dose: 176.0 mg/kg/injection, schedule: Q04DX003 (ip), vehicle: saline with Tween-80",114 % of control
same,T/C,[16],120 % of control
same,T/C,"dose: 264.0 mg/kg/injection, schedule: Q04DX003 (ip), vehicle: saline with Tween-80",123 % of control
O=C1CS/C(=N\C(=O)Nc2cccc(C(F)(F)F)c2)N1,T/C,"dose: 12.5 mg/kg/injection, schedule: Q01DX009 (ip), vehicle: saline",103 % of control
same,T/C,[12],94 % of control
same,T/C,[7],87 % of control
CC1(CO)CSC(Nc2ccc(F)cc2)=N1 (centres undefined),T/C,[7],104 % of control
same,T/C,[8],98 % of control
same,T/C,[16],104 % of control
CCCCNCCC(=O)c1ccc(Cl)cc1,T/C,"dose: 6.25 mg/kg/injection, schedule: Q01DX009 (ip), vehicle: saline with Tween-80",100 % of control
same,T/C,"dose: 12.5 mg/kg/injection, schedule: Q01DX009 (ip), vehicle: saline with Tween-80",100 % of control
same,T/C,[6],105 % of control
C=CCOc1cc2c(cc1C(C)c1cc(OC)c(OC)c(OC)c1)OCO2 (centres undefined),T/C,[3],101 % of control
same,T/C,[4],99 % of control
same,T/C,[5],108 % of control
